Calls of active or inactive are those of the source. No cut-off for these calls is given here.
Experiments:
H9c2 [1] = test: Cardioprotective activity against CoCl2-induced cellular hypoxia injury in rat H9c2 cells assessed as cell viability at 10 uM incubated for 24 hrs by CCK-8 assay (reference value: 51.80 +/- 2.58 %); assay type: functional; conditions: read-out: Activity
H9c2 [2] = test: Antioxidant activity against CoCl2-induced cellular hypoxia injury in rat H9c2 cells assessed as decrease in hypoxia-induced MDA level at 5 to 10 uM incubated for 24 hrs; assay type: functional, cell-based; conditions: dose 5-10 µM
H9c2 [3] = test: Cardioprotective activity against CoCl2-induced cellular hypoxia injury in rat H9c2 cells assessed as inhibition of ROS-induced cell damage at 5 to 10 uM incubated for 24 hrs by fluorescence based analysis; assay type: functional; conditions: dose 5-10 µM
H9c2 [4] = test: Induction of H2S release in rat H9c2 cells incubated for 24 hrs by fluorescence based imaging analysis; assay type: functional, cell-based; conditions: dose 0.625-10 µM
[5] = biological target: T1, NAD-dependent protein deacetylase sirtuin-1 (Rattus norvegicus) (UniProt A0A0G2JZ79); test: Activation of SIRT1 in CoCl2-induced cellular hypoxia injury in rat H9c2 cells at 10 uM incubated for 24 hrs in presence of GSSG by immunofluorescence based analysis; assay type: cell-based
T1 sequence (whole entry): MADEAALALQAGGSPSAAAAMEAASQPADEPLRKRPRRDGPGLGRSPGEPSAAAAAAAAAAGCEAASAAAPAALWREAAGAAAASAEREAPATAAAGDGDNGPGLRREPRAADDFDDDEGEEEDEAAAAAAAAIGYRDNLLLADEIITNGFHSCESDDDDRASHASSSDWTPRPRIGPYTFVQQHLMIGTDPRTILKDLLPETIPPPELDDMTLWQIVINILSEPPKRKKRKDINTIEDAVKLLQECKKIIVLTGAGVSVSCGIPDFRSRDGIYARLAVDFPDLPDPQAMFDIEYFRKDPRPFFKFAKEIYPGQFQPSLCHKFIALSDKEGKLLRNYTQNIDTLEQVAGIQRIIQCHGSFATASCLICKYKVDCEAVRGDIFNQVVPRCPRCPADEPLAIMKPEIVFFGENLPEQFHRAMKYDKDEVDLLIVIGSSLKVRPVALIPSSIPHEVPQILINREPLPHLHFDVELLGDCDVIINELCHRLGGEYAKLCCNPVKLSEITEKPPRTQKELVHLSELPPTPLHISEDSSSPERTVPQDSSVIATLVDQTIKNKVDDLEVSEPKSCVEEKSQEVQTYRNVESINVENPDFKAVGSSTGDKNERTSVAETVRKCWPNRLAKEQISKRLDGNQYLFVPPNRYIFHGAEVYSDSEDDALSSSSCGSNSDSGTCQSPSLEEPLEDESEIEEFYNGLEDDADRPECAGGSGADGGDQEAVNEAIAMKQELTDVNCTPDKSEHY

H9c2 [6] = test: Antioxidant activity against CoCl2-induced cellular hypoxia injury in rat H9c2 cells assessed as decrease in hypoxia-induced LDH release at 10 uM incubated for 24 hrs in presence of GSSG; assay type: functional, cell-based
Rattus norvegicus [7] = test: Cardioprotective activity in myocardial ischemia Sprague-Dawley rat model assessed as decrease in myocardial injury administered intragastrically for 7 days consecutively followed by ISO administration daily for 2 days consecutively by H and E/Masson staining based analysis; assay type: functional, organism-based; conditions: dose 10-30 mg/kg, route ig, time 9.0 day
[8] = Induction of H2S release in PBS at pH 7.4 at 100 uM measured upto 60 mins by methylene blue method; assay type: functional
H9c2 [9] = test: Upregulation of SIRT1 mRNA level in CoCl2-induced cellular hypoxia injury in rat H9c2 cells at 5 to 10 uM incubated for 24 hrs by qPCR analysis; assay type: functional, cell-based; conditions: dose 5-10 µM
H9c2 [10] = test: Cardioprotective activity against CoCl2-induced cellular hypoxia injury in rat H9c2 cells assessed as rate of necrosis at 10 uM incubated for 24 hrs in presence of GSSG by flow cytometry (reference value: 22.5 %); assay type: functional
Rattus norvegicus [11] = test: Cardioprotective activity in myocardial ischemia Sprague-Dawley rat model assessed as improvement in tissue clearance at 10 to 30 mg/kg, IG treated for 7 days consecutively followed by ISO administration daily for 2 days consecutively by H and E/Masson staining based analysis; assay type: functional, organism-based; conditions: dose 10-30 mg/kg, time 9.0 day
H9c2 [12] = test: Cardioprotective activity against CoCl2-induced cellular hypoxia injury in rat H9c2 cells assessed as rate of apoptosis at 10 uM incubated for 24 hrs in presence of GSSG by flow cytometry (reference value: 19.5 %); assay type: functional
H9c2 [13] = test: Cardioprotective activity against CoCl2-induced cellular hypoxia injury in rat H9c2 cells assessed as inhibition of CoCl2-induced morphological changes at 5 to 10 uM incubated for 24 hrs by fluorescence based analysis; assay type: functional, cell-based; conditions: dose 5-10 µM
H9c2 [14] = test: Cardioprotective activity against CoCl2-induced cellular hypoxia injury in rat H9c2 cells assessed as mitochondrial membrane potential at 10 uM incubated for 24 hrs in presence of GSSG by JC-1 staining based analysis (reference value: 48.08 %); assay type: functional
H9c2 [15] = test: Cardioprotective activity against CoCl2-induced cellular hypoxia injury in rat H9c2 cells assessed as ROS accumulation at 5 uM incubated for 24 hrs by DCFH-DA probe based analysis (reference value: 28.03 %); assay type: functional
[16] = biological target: T1, NAD-dependent protein deacetylase sirtuin-1 (Rattus norvegicus); test: Activation of SIRT1 in CoCl2-induced cellular hypoxia injury in rat H9c2 cells at 5 to 10 uM incubated for 24 hrs by immunofluorescence based analysis; assay type: cell-based; conditions: filed as activator, dose 5-10 µM
H9c2 [17] = test: Antioxidant activity against CoCl2-induced cellular hypoxia injury in rat H9c2 cells assessed as decrease in hypoxia-induced LDH release at 5 to 10 uM incubated for 24 hrs; assay type: functional, cell-based; conditions: dose 5-10 µM
H9c2 [18] = test: Antioxidant activity against CoCl2-induced cellular hypoxia injury in rat H9c2 cells assessed as increase in Nrf2 level at 5 to 10 uM incubated for 24 hrs by Western blot analysis; assay type: functional, cell-based; conditions: dose 5-10 µM
Rattus norvegicus [19] = test: Cardioprotective activity in myocardial ischemia Sprague-Dawley rat model assessed as decrease in ISO-induced ST segment at 10 to 30 mg/kg, IG treated for 7 days consecutively followed by ISO administration daily for 2 days consecutively by ECG analysis; assay type: functional, organism-based; conditions: dose 10-30 mg/kg, time 9.0 day
H9c2 [20] = test: Cardioprotective activity against CoCl2-induced cellular hypoxia injury in rat H9c2 cells assessed as increase in cell viability at 30 uM incubated for 24 hrs by CCK-8 assay; assay type: functional, cell-based
H9c2 [21] = test: Cardioprotective activity against CoCl2-induced cellular hypoxia injury in rat H9c2 cells assessed as cell viability at 1.25 uM incubated for 24 hrs by CCK-8 assay (reference value: 51.80 +/- 2.58 %); assay type: functional; conditions: read-out: Activity
Rattus norvegicus [22] = test: Cardioprotective activity against myocardial ischemia Sprague-Dawley rat model assessed as increase in PGC1-alpha level in myocardial tissue at 10 to 30 mg/kg, IG treated for 7 days consecutively followed by ISO administration daily for 2 days consecutively by Western blot analysis; assay type: functional, organism-based; conditions: dose 10-30 mg/kg, time 9.0 day
H9c2 [23] = test: Cardioprotective activity against CoCl2-induced cellular hypoxia injury in rat H9c2 cells assessed as cell viability at 2.5 uM incubated for 24 hrs by CCK-8 assay (reference value: 51.80 +/- 2.58 %); assay type: functional; conditions: read-out: Activity
H9c2 [24] = test: Cardioprotective activity against CoCl2-induced cellular hypoxia injury in rat H9c2 cells assessed as cell viability at 0.625 uM incubated for 24 hrs by CCK-8 assay (reference value: 51.80 +/- 2.58 %); assay type: functional; conditions: read-out: Activity

In the case of `C=CCSSCCC(=O)O[C@H]1CC[C@]2(C)[C@H]3C[C@@H](O)[C@@H]4[C@@H]([C@]5(C)CC[C@@H](C(C)(C)O)O5)CC[C@@]4(C)[C@]3(C)CC[C@H]2C1(C)C`, the viability at 10 µM (H9c2 [1]) was 97.9%, the Activity (H9c2 [2]) was “Active” and the inhibition (H9c2 [3]) was “Active”. The Activity (H9c2 [4]) was “Dose-dependent-effect”, the Activity [5] was “inactive” and the Activity (H9c2 [6]) was “inactive”. The Activity (Rattus norvegicus [7]) was “Dose-dependent-effect”, the Activity [8] was “Active” and the Activity (H9c2 [9]) was “Active”. For the same molecule, the Activity (H9c2 [10]) was 7.54%, the Activity (Rattus norvegicus [11]) was “Active” and the Activity (H9c2 [12]) was 8.01%. The inhibition (H9c2 [13]) was “Active”, the Activity (H9c2 [14]) was 61.96% and the Activity (H9c2 [15]) was 6.38%. The Activity [16] was “Active”, the Activity (H9c2 [17]) was “Active” and the Activity (H9c2 [18]) was “Active”. For the same molecule, the Activity (Rattus norvegicus [19]) was “Active”, the Activity (H9c2 [20]) was “inactive” and the viability at 1.25 µM (H9c2 [21]) was 85.7%. The Activity (Rattus norvegicus [22]) was “Active”, the viability at 2.5 µM (H9c2 [23]) was 87.8% and the viability at 0.625 µM (H9c2 [24]) was 76.5%.
